These results are taken from publication PMC10227065, “Structures of Tetrahymena thermophila respiratory megacomplexes on the tubular mitochondrial cristae” (Nature Communications, 2023).

Experiment [1] has as its target T1, Tt-CII (SDHA/SDHB hydrophilic head) (Tetrahymena thermophila, UniProt Q23DI3).
T1 construct: gene TTHERM_00047080
The experiment in a line: cyt c reduction/oxidation, […] nm. Type of experiment: biochemical. The note with it: 5 mM malonate; 5 mM succinate, 50 uM decylubiquinone, 100 uM Tt-cyt c, 10 nM megacomplex, pH 7.4, 0.1% digitonin, room temperature.

A further experiment addresses T2, NDUA9 (Tt-CI subunit) (Tetrahymena thermophila, UniProt I7MLH2).
T2 construct: gene TTHERM_00557760
T2 sequence (I7MLH2 27-362): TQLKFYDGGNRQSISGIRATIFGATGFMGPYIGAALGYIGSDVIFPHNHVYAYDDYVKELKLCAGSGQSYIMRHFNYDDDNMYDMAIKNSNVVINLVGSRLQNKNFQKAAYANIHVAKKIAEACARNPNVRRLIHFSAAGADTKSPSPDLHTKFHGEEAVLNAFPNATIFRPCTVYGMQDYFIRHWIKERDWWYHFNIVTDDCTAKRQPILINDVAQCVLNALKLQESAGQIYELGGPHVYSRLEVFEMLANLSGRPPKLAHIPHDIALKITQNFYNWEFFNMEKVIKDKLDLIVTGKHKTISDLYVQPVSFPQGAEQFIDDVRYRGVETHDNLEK
Description: cryo-EM structure. It is filed as binding. The note with it: printed only as NDP group (PDB ligand code). The source says: cryo-EM structure on NDUA9 (Tt-CI subunit) | NDP group of NDUA9 and the interfacial heme […]1

For experiment [2], the target named is T1, Tt-CII (SDHA/SDHB hydrophilic head). The experiment in a line: cryo-EM structure. It is filed as binding.

T1 sequence (Q23DI3 1-636): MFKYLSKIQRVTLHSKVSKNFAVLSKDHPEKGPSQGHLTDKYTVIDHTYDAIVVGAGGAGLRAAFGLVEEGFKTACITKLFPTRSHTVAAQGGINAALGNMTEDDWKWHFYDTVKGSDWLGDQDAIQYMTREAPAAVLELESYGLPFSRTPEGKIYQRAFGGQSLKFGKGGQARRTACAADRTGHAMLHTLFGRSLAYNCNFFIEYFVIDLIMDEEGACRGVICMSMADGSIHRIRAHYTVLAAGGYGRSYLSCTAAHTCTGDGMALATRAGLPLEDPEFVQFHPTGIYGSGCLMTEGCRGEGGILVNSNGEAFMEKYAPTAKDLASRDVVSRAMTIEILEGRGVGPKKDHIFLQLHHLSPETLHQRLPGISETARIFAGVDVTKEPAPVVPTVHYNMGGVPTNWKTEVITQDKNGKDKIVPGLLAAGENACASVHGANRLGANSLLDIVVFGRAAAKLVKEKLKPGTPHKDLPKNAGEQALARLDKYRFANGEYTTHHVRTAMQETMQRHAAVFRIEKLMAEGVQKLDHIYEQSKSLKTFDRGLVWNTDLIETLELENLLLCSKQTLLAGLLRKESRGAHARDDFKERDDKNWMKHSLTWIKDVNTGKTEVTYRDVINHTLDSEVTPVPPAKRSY
T1 sequence (I7M403 21-312 partner): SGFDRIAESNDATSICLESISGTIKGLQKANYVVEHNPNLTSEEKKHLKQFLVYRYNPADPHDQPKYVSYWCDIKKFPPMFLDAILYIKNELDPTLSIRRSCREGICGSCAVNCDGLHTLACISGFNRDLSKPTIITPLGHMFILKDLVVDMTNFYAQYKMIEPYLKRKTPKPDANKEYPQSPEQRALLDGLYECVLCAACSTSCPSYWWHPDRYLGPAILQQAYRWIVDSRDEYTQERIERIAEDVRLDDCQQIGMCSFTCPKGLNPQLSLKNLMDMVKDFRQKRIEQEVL

Take `O=C(O)CC(=O)O` [malonate]: the “cyt c reduction/oxidation, 550 nm” value in experiment [1] was “NADH and succinate-dependent activities could be inhibited by CI inhibitor rotenone and CII inhibitor malonate”.

`NC(=O)C1=CN([C@@H]2O[C@H](COP(=O)(O)OP(=O)(O)OC[C@H]3O[C@@H](n4cnc5c(N)ncnc54)[C@H](OP(=O)(O)O)[C@@H]3O)[C@@H](O)[C@H]2O)C=CC1` [NDP]: the cryo-EM structure result on NDUA9 (Tt-CI subunit) is “NDP group of NDUA9 and the interfacial heme c SDHTT1”. For the molecule `Cc1cc2nc3c(=O)[nH]c(=O)nc-3n(C[C@H](O)[C@H](O)[C@H](O)COP(=O)(O)OP(=O)(O)OC[C@H]3O[C@@H](n4cnc5c(N)ncnc54)[C@H](O)[C@@H]3O)c2cc1C` [FAD], the cryo-EM structure entry in experiment [2] was “highly conserved to known CII structures with the FAD and three iron-sulfur clusters in place”.
